Assay results published in ChEMBL document CHEMBL1135600, “Novel tricyclic-alpha-alkyloxyphenylpropionic acids: dual PPARalpha/gamma agonists with hypolipidemic and antidiabetic activity” (J Med Chem, 2002).
pEC50: −log10 of the molar value. Each block holds one molecule with its values, some of them ahead of it.

Assays:
[1] = target: T1, Peroxisome proliferator-activated receptor gamma (Homo sapiens, UniProt P37231)
T1 sequence (P37231 whole entry): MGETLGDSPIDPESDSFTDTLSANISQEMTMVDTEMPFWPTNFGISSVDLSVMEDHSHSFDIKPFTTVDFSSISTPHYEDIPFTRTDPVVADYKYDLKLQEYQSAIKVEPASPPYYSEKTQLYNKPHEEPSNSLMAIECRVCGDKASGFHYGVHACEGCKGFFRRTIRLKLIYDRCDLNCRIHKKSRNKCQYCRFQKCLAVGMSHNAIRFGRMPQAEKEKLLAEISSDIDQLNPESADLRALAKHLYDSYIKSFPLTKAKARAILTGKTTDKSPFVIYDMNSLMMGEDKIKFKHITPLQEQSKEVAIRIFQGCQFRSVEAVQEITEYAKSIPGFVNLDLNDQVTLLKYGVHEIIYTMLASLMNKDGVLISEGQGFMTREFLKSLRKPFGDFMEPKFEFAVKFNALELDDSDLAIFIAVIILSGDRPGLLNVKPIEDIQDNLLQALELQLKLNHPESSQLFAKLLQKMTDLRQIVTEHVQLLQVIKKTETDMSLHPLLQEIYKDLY
Description: In vitro transactivation using receptor transactivation assay against hPPAR gamma

[2] = target: T2, Peroxisome proliferator-activated receptor alpha (Homo sapiens, UniProt Q07869); test: In vitro transactivation using receptor transactivation assay against hPPAR alpha; assay type: functional
T2 sequence (Q07869 whole entry): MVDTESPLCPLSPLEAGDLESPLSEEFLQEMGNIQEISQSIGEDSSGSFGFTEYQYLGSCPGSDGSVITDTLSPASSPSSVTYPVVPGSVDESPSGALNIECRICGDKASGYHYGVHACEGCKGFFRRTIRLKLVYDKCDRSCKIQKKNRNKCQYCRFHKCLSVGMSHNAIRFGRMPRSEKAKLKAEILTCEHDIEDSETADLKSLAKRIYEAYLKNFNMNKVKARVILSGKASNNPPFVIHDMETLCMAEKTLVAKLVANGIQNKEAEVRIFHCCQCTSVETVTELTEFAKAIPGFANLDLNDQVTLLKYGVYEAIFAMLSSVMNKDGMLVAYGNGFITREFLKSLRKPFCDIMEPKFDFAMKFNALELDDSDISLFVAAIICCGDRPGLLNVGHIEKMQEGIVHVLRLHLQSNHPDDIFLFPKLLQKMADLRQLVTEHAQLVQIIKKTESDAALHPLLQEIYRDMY

[3] = Area under blood glucose time curve after OGTT on the 9th day of treatment; assay type: ADME, tissue-based
[4] = species: Mus musculus; test: Nonfasting insulin after 7 days treatment in male db/db mice; assay type: functional; settings: 168 h
[5] = in vivo
Description: Volume of distribution during steady state

[6] = Maximum plasma concentration after oral administration at a dose 2.2 mg/kg; assay type: ADME, organism-based; design: dose 2.2 mg/kg, route oral
[7] = species: Mus musculus; test: Maximum achieved insulin reduction relative to vehicle treated control group; assay type: functional
[8] = Clearance after oral administration; assay type: ADME, organism-based; settings: in vivo
[9] = species: Mus musculus; test: Maximum achieved triglycerides reduction relative to vehicle treated control group; assay type: functional
[10] = species: Mus musculus; test: Nonfasting blood glucose after 7 days treatment in male db/db mice; assay type: functional; settings: 168 h
[11] = Oral bioavailability; assay type: ADME, organism-based; settings: eutheria, in vivo
[12] = species: Mus musculus; test: Nonfasting triglycerides after 7 days treatment in male db/db mice; assay type: functional; settings: 168 h
[13] = species: Mus musculus; test: (§1) Maximum achieved blood glucose reduction relative to vehicle treated control group; assay type: functional
[14] = species: Mus musculus; test: as §1; assay type: functional; remark: listed apart in the source
[15] = Oral half life was reported; assay type: ADME, organism-based; settings: in vivo
[16] = Area under plasma concentration time curve after oral administration at a dose 2.2 mg/kg; assay type: ADME, organism-based; design: dose 2.2 mg/kg, route oral; settings: in vivo

Structure (SMILES): CCOC(Cc1ccc(OCCCN2c3ccccc3CCc3ccccc32)cc1)C(=O)O (configuration not stated)
pEC50 [1]: 6.12

pEC50 [2]: 5.12 | pEC50 [1]: 5.01
Structure (SMILES): CCOC(Cc1ccc(OCCNC2=Nc3ccccc3Sc3ccccc32)cc1)C(=O)O (configuration not stated)

Structure (SMILES): CCOC(Cc1ccc(OCCN2c3ccccc3C=Cc3ccccc32)cc1)C(=O)O (configuration not stated)
pEC50 [2]: 5.02 | pEC50 [1]: 6.12

pEC50 [2]: 4.91 | pEC50 [1]: 4.91
Structure (SMILES): CCOC(Cc1ccc(OCC/C=C2/c3ccccc3COc3ccccc32)cc1)C(=O)O (configuration not stated)

pEC50 [1]: 5.77
Structure (SMILES): CCOC(Cc1ccc(OCCN(C)C2c3ccccc3CCc3ccccc32)cc1)C(=O)O (configuration not stated)

Structure (SMILES): CCc1ccc(CCOc2ccc(CC3SC(=O)NC3=O)cc2)nc1 (configuration not stated) [PIOGLITAZONE]
AUC ED50 [3]: 12.09 mg/kg | ED50 [4]: 15.1 mg/kg | Vd [5]: 0.22 L/kg | Cmax [6]: 4660 ng/mL | Max reduction [7]: 54% | CL/F [8]: 1.4 mL/min/kg | Max reduction [9]: 21% | ED50 [10]: 2.62 mg/kg | bioavailability [11]: 112% | ED50 [12]: 26.7 mg/kg | Max reduction [13]: 39% | Max reduction [14]: 53% | half-life [15]: 228 min | AUC [16]: 29.2 µg·h/mL
